Like-named read-outs stand apart in the source and are kept apart here.
Key:
Type in all cases: binding, Paenibacillus sp. FPU-7
[1] = target: T1, NagB2; assay: SPR (Biacore X100), crystal structure at […] Å, DSF
T1 construct: recombinant without signal peptide (Met1 to Ala20), C-terminal LEHHHHHH

[2] = target: T2, NagB1; assay: SPR (Biacore X100), crystal structure at […] Å, DSF
T2 construct: recombinant without Met1–Ser21 signal peptide and Cys22–Phe48 (starts at Thr49), C-terminal LEHHHHHH

[3] = target: T2, NagB1; assay: SPR (Biacore X100), DSF
[4] = target: T1, NagB2; assay: SPR (Biacore X100), crystal structure at […] Å, DSF; remark: listed apart in the source

Kd [1] | Kd [2] | Kd [3] | Kd [4] | SMILES
190 nM | 173 nM | – | – | CC(=O)N[C@H]1[C@H](O[C@H]2[C@H](O)[C@@H](NC(C)=O)C(O)O[C@@H]2CO)O[C@H](CO)[C@@H](O)[C@@H]1O (stereo partly shown) [(GlcNAc)2, N,N′-diacetylchitobiose]
– | – | 2970 nM | 1120 nM | CC(=O)N[C@H]1[C@H](O[C@H]2[C@H](O)[C@@H](NC(C)=O)C(O)O[C@@H]2CO)O[C@H](CO)[C@@H](O[C@@H]2O[C@H](CO)[C@@H](O)[C@H](O)[C@H]2NC(C)=O)[C@@H]1O (stereo partly shown) [(GlcNAc)3, N,N′,N′′-triacetylchitotoriose]

From publication PMC8233162, “Structural characterization of two solute-binding proteins for N,N′-diacetylchitobiose/N,N′,N′′-triacetylchitotoriose of the gram-positive bacterium, Paenibacillus sp. str. FPU-7” (Journal of Structural Biology: X, 2021)
